Results: patent US9976141B2, “Compositions and methods for inhibiting gene expression of Hif2alpha” (Arrowhead Madison Inc., priority 2015, dated 2018)

Test system: human (tumor) Hif2α (EPAS1) mRNA
Assay: Hif2α knockdown in orthotopic RCC tumor bearing mice, single injection of RNAi trigger-delivery polymer conjugate, RT-qPCR (Table 7)
Format: in vivo
Conditions: single tail vein injection, relative to isotonic glucose
Outline: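 Female athymic nude mice carried orthotopic A498-SEAP ccRCC kidney tumours, used 5–6 weeks after implantation. They received one tail-vein injection of RGD-targeted Hif2α RNAi trigger–polymer conjugate or isotonic glucose. Tumour Hif2α mRNA was measured by TaqMan RT-qPCR normalised to CycA (ΔΔCT) and expressed relative to glucose-treated mice.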

[1] = RNAi trigger 80 μg, polymer 126 400 μg
[2] = RNAi trigger 150 μg, polymer 100A 300 μg

AD01294 (antisense TUUCAUGAAAUCGUUACGUCGGCUGU; sense UAUAUCGACGUAACGAUUUCAUGAAA; Hif2alpha RNAi agent antisense strand; modified_base 25 modified base = “2′-hydroxy corresponding nucleoside”; modified_base 2,4,6,8,10,14,16,18,20 /mod_base = “2′-deoxy-2′-fluoro corresponding nucleoside”; modified_base 3,5,7,9,11,12,13,15,17,19,21,22,23,24,26 /mod_base = “2′-O-methyl corresponding nucleoside”; modified_base 2,3,23,24 /mod_base = “5′-phosphorothioate corresponding nucleotide”; Hif2alpha RNAi agent sense strand; modified_base 2,4 modified base = “2′-hydroxy corresponding nucleoside”; modified_base 6,8,10,12,14,15,16,18,20,22,24,26 /mod_base = “2′-deoxy-2′-fluoro correspondin)
Relative Expression day 4 (Hif2α mRNA in kidney tumor) [1]: 0.17

AD01295 (antisense TUUCAUGAAAUCGUUACGUUGGCUAU; sense UAUAUCAACGUAACGAUUUCAUGAAA; Hif2alpha RNAi agent antisense strand; modified_base 25 modified base = “2′-hydroxy corresponding nucleoside”; modified_base 2,4,6,8,10,14,16,18,20 /mod_base = “2′-deoxy-2′-fluoro corresponding nucleoside”; modified_base 3,5,7,9,11,12,13,15,17,19,21,22,23,24,26 /mod_base = “2′-O-methyl corresponding nucleoside”; modified_base 2,3,23,24 /mod_base = “5′-phosphorothioate corresponding nucleotide”; Hif2alpha RNAi agent sense strand; modified_base 2,4 modified base = “2′-hydroxy corresponding nucleoside”; modified_base 6,8,10,12,14,15,16,18,20,22,24,26 /mod_base = “2′-deoxy-2′-fluoro correspondin)
Relative Expression day 4 (Hif2α mRNA in kidney tumor) [1]: 0.22

AD01296 (antisense TUUCAUGAAAUCGUUACGUUGGCUTT; sense UAUAUCAACGUAACGAUUUCAUGAAA; Hif2alpha RNAi agent antisense strand; modified_base 2,4,6,8,10,14,16,18,20 /mod_base = “2′-deoxy-2′-fluoro corresponding nucleoside”; modified_base 3,5,7,9,11,12,13,15,17,19,21,22,23,24 /mod_base = “2′-O-methyl corresponding nucleoside”; modified_base 2,3,25,26 /mod_base = “5′-phosphorothioate corresponding nucleotide”; Hif2alpha RNAi agent sense strand; modified_base 2,4 modified base = “2′-hydroxy corresponding nucleoside”; modified_base 6,8,10,12,14,15,16,18,20,22,24,26 /mod_base = “2′-deoxy-2′-fluoro corresponding nucleoside”; modified_base 1,3,5,7,9,11,13,17,19,21,23,25 /mod_base = “2′)
Relative Expression day 4 (Hif2α mRNA in kidney tumor) [1]: 0.21

AD01404 (antisense TUUCAUGAAAUCGUUACGUCGGCUAU; sense UAUAUCGACGUAACGAUUUCAUGAAA; Hif2alpha RNAi agent antisense strand; modified_base 25 modified base = “2′-hydroxy corresponding nucleoside”; modified_base 2,4,6,10,12,14,16,18,20 /mod_base = “2′-deoxy-2′-fluoro corresponding nucleoside”; modified_base 3,5,7,9,11,13,15,17,19,21,22,23,24,26 /mod_base = “2′-O-methyl corresponding nucleoside”; modified_base 8 /mod_base = “2′-3′ seco corresponding nucleotide”; modified_base 2,3,23,; Hif2alpha RNAi agent sense strand; modified_base 2,4 modified base = “2′-hydroxy corresponding nucleoside”; modified_base 6,8,10,12,14,16,18,20,22,24,26 /mod_base = “2′-deoxy-2′-fluoro correspondi)
Relative Expression day 4 (Hif2α mRNA in kidney tumor) [2]: 0.58

AD01405 (antisense TUUCAUGAAAUCGUUACGUCGGCUAU; sense UAUAUCGACGUAACGAUUUCAUGAAA; Hif2alpha RNAi agent antisense strand; modified_base 25 modified base = “2′-hydroxy corresponding nucleoside”; modified_base 2,4,6,10,12,14,16,18,20 /mod_base = “2′-deoxy-2′-fluoro corresponding nucleoside”; modified_base 3,5,7,9,11,13,15,17,19,21,22,23,24,26 /mod_base = “2′-O-methyl corresponding nucleoside”; modified_base 8 /mod_base = “2′-3′ seco corresponding nucleotide”; modified_base 2,3,23,; Hif2alpha RNAi agent sense strand; modified_base 2,4 modified base = “2′-hydroxy corresponding nucleoside”; modified_base 6,8,10,12,14,16,18,20,22,24,26 /mod_base = “2′-deoxy-2′-fluoro correspondi)
Relative Expression day 4 (Hif2α mRNA in kidney tumor) [2]: 0.51

AD01406 (antisense TUUCAUGAAAUCGUUACGUCGGCUAU; sense UAUAUCGACGUAACGAUUUCAUGAAA; Hif2alpha RNAi agent antisense strand; modified_base 25 modified base = “2′-hydroxy corresponding nucleoside”; modified_base 2,4,6,10,12,14,16,18,20 /mod_base = “2′-deoxy-2′-fluoro corresponding nucleoside”; modified_base 3,5,7,9,11,13,15,17,19,21,22,23,24,26 /mod_base = “2′-O-methyl corresponding nucleoside”; modified_base 8 /mod_base = “2′-3′ seco corresponding nucleotide”; modified_base 2,24 /m; Hif2alpha RNAi agent sense strand; modified_base 2,4 modified base = “2′-hydroxy corresponding nucleoside”; modified_base 6,8,10,12,14,16,18,20,22,24,26 /mod_base = “2′-deoxy-2′-fluoro correspondi)
Relative Expression day 4 (Hif2α mRNA in kidney tumor) [2]: 0.45

AD01407 (antisense TUUCAUGAAAUCGUUACGUCGGCUAU; sense UAUAUCGACGUAACGAUUUCAUGAAA; Hif2alpha RNAi agent antisense strand; modified_base 25 modified base = “2′-hydroxy corresponding nucleoside”; modified_base 2,4,6,10,12,14,16,18,20 /mod_base = “2′-deoxy-2′-fluoro corresponding nucleoside”; modified_base 3,5,7,9,11,13,15,17,19,21,22,23,24,26 /mod_base = “2′-O-methyl corresponding nucleoside”; modified_base 8 /mod_base = “2′-3′ seco corresponding nucleotide”; modified_base 2,24 /m; Hif2alpha RNAi agent sense strand; modified_base 2,4 modified base = “2′-hydroxy corresponding nucleoside”; modified_base 6,8,10,12,14,16,18,20,22,24,26 /mod_base = “2′-deoxy-2′-fluoro correspondi)
Relative Expression day 4 (Hif2α mRNA in kidney tumor) [2]: 0.47

AD01408 (antisense TUUCAUGAAAUCGUUACGUCGGCUAU; sense UAUAUCGACGUAACGAUUUCAUGAAA; Hif2alpha RNAi agent antisense strand; modified_base 25 modified base = “2′-hydroxy corresponding nucleoside”; modified_base 2,4,6,8,10,12,14,16,18,20 /mod_base = “2′-deoxy-2′-fluoro corresponding nucleoside”; modified_base 3,5,7,11,13,15,17,19,21,22,23,24,26 /mod_base = “2′-O-methyl corresponding nucleoside”; modified_base 9 /mod_base = “2′-3′ seco corresponding nucleotide”; modified_base 2,3,23,; Hif2alpha RNAi agent sense strand; modified_base 2,4 modified base = “2′-hydroxy corresponding nucleoside”; modified_base 6,8,10,12,14,16,18,20,22,24,26 /mod_base = “2′-deoxy-2′-fluoro correspondi)
Relative Expression day 4 (Hif2α mRNA in kidney tumor) [2]: 0.50

AD01409 (antisense TUUCAUGAAAUCGUUACGUCGGCUAU; sense UAUAUCGACGUAACGAUUUCAUGAAA; Hif2alpha RNAi agent antisense strand; modified_base 25 modified base = “2′-hydroxy corresponding nucleoside”; modified_base 2,4,6,8,10,12,14,16,18,20 /mod_base = “2′-deoxy-2′-fluoro corresponding nucleoside”; modified_base 3,5,7,11,13,15,17,19,21,22,23,24,26 /mod_base = “2′-O-methyl corresponding nucleoside”; modified_base 9 /mod_base = “2′-3′ seco corresponding nucleotide”; modified_base 2,3,23,; Hif2alpha RNAi agent sense strand; modified_base 2,4 modified base = “2′-hydroxy corresponding nucleoside”; modified_base 6,8,10,12,14,16,18,20,22,24,26 /mod_base = “2′-deoxy-2′-fluoro correspondi)
Relative Expression day 4 (Hif2α mRNA in kidney tumor) [2]: 0.55
